Measurements published in ChEMBL document CHEMBL5653631, “A Potent and Selective ULK1 Inhibitor Suppresses Autophagy and Sensitizes Cancer Cells to Nutrient Stress” (iScience, 2018).
Blank lines part the entries; values can stand above or below the compound they belong to.

Tests used:
[1] = biological target: Tyrosine-protein kinase Fgr (Homo sapiens) (UniProt P09769); test: Inhibition of human recombinant FGR at 500 nM in presence of ATP by radiometric assay relative to control
[2] = biological target: Ephrin type-A receptor 4 (Homo sapiens) (UniProt P54764); test: Inhibition of human recombinant EphA4 at 500 nM in presence of ATP by radiometric assay relative to control
Sequence of Ephrin type-A receptor 4 (Homo sapiens) (P54764 whole entry): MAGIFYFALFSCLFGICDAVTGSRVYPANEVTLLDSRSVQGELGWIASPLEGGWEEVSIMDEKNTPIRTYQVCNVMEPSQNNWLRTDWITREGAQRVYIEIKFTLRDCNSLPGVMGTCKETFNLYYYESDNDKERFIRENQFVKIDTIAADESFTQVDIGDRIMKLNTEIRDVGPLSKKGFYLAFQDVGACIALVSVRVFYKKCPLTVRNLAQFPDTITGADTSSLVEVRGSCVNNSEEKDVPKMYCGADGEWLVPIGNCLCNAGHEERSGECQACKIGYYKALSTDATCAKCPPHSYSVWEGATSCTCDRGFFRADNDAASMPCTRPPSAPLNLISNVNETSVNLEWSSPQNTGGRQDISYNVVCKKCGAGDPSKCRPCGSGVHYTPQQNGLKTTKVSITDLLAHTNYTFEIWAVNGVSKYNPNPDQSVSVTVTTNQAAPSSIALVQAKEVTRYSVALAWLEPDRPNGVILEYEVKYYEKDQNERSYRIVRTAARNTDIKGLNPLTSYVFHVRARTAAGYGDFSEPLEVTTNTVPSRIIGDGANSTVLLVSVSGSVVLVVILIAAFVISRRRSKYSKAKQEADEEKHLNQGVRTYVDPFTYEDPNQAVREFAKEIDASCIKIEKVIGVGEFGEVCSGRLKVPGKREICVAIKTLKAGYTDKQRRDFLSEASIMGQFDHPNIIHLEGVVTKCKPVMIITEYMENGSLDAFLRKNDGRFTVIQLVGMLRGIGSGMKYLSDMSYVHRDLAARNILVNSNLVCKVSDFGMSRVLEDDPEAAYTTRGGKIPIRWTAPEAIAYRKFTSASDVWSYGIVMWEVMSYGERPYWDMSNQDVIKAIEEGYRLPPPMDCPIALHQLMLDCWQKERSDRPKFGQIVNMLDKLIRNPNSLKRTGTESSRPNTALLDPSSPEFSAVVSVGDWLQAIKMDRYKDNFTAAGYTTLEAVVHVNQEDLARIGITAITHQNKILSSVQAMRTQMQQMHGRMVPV

[3] = biological target: T1, Homeodomain-interacting protein kinase 4 (Homo sapiens) (UniProt Q8NE63); test: Inhibition of human recombinant HIPK4 at 15 nM in presence of ATP by radiometric assay relative to control
T1 sequence (whole entry): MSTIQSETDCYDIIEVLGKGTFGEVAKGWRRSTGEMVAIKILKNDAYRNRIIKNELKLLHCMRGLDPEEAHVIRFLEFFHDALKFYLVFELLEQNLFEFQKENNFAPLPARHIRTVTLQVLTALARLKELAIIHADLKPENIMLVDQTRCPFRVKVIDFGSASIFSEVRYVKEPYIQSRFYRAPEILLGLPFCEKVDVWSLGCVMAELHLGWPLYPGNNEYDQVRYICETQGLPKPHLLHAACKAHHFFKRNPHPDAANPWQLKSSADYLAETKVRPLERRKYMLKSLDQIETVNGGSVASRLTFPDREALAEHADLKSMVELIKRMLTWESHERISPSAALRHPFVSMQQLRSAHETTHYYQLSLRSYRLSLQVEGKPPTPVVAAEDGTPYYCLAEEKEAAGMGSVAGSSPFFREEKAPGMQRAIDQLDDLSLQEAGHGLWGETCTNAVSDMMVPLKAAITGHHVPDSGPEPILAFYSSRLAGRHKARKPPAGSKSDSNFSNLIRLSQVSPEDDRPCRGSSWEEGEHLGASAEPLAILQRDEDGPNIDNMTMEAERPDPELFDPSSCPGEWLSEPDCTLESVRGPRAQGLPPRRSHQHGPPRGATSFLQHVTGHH

[4] = biological target: Cyclin-dependent kinase 9 (Homo sapiens) (UniProt P50750); test: Inhibition of human recombinant CDK9 at 15 nM related to control ULK1
Sequence of Cyclin-dependent kinase 9 (Homo sapiens) (P50750 whole entry): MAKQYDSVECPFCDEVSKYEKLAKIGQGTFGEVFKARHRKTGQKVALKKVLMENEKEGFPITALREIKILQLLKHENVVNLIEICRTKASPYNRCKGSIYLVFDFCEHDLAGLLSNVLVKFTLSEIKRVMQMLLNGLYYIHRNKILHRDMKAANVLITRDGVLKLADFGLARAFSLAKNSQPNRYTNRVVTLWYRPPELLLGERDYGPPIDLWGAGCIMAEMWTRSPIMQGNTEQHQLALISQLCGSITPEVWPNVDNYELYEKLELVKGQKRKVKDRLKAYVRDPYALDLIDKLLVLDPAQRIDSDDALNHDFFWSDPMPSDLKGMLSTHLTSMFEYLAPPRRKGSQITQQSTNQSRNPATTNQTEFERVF

[5] = biological target: T2, Serine/threonine-protein kinase TBK1 (Homo sapiens) (UniProt Q9UHD2); test: Inhibition of human recombinant TBK1 at 15 nM in presence of ATP by radiometric assay relative to control
T2 sequence (whole entry): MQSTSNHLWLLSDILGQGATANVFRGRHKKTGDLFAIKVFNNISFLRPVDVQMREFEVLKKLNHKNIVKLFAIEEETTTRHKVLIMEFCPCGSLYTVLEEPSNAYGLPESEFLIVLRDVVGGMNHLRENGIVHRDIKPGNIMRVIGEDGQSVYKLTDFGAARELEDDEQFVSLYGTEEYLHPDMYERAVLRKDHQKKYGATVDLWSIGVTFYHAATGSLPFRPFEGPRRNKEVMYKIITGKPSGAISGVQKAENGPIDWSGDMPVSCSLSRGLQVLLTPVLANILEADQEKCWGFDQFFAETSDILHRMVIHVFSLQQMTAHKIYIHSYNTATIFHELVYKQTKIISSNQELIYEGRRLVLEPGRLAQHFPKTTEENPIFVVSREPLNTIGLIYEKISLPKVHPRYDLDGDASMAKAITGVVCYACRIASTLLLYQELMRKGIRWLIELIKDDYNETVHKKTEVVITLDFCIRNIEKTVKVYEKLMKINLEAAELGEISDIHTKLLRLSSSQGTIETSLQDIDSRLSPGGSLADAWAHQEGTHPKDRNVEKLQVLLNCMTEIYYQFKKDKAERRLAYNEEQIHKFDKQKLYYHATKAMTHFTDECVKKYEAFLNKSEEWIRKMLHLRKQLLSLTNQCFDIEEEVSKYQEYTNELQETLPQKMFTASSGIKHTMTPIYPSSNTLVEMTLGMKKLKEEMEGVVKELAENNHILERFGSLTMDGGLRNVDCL

[6] = biological target: T3, Receptor-interacting serine/threonine-protein kinase 1 (Homo sapiens) (UniProt Q13546); test: Inhibition of human recombinant RIPK1 at 40 nM related to control ULK1
T3 sequence (whole entry): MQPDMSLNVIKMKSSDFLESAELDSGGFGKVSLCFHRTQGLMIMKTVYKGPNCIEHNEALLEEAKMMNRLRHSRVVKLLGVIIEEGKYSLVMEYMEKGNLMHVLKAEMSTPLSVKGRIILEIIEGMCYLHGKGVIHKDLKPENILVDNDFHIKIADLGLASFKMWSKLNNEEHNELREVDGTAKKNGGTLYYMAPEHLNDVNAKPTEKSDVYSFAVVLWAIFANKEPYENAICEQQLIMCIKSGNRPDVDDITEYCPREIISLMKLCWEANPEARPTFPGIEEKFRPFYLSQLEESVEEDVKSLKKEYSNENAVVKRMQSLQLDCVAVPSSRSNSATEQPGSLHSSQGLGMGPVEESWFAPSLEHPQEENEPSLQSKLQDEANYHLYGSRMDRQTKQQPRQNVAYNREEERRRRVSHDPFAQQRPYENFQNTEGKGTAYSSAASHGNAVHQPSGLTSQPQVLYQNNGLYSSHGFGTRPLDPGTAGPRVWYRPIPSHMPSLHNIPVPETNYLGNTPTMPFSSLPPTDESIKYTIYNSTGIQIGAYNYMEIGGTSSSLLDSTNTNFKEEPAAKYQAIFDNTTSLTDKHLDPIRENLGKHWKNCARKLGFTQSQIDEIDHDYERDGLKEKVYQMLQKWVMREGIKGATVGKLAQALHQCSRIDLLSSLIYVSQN

Sequence of Tyrosine-protein kinase Fgr (Homo sapiens) (P09769 2-529 limits assumed): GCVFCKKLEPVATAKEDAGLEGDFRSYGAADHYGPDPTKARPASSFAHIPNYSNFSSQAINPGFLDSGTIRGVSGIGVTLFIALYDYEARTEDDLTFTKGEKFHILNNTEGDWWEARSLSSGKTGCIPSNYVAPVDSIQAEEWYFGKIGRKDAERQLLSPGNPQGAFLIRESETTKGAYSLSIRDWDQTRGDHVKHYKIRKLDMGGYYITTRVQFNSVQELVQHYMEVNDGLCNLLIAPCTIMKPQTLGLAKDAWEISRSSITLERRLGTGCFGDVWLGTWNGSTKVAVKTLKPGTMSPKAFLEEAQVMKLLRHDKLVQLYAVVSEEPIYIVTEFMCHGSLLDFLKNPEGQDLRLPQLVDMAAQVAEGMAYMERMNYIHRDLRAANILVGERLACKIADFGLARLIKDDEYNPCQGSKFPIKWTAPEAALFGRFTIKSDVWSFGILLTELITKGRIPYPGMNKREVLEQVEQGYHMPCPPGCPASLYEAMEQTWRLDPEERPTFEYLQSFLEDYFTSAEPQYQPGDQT

inhibition [1]: 8%
inhibition [2]: 15%
Compound: CNC(=O)c1ccccc1Oc1nc(Nc2cc(OC)c(OC)c(OC)c2)ncc1Br

inhibition [3]: 0%
fold change (FC) [4]: 0
inhibition [5]: 79%
Compound: CC(C)[C@H](NC(=O)c1cc(-c2cnn3cc(-c4ccc(OCCN5CCCCC5)cc4)cnc23)cs1)C(F)(F)F

fold change (FC) [6]: 0.03
Compound: O=C(N[C@@H](C1CC1)C(F)(F)F)c1cc(-c2cnn3cc(-c4ccc(F)cc4)cnc23)cs1
